Data reported in patent publication US20240398823A1, “DUAL INHIBITOR OF HISTONE DEACETYLASE 6 AND HEAT SHOCK PROTEIN 90” (TAIPEI MEDICAL UNIVERSITY, priority 2021, published 2024).

Tests used:
HDAC6 = molecular target: T1, HDAC6 (Homo sapiens, UniProt Q9UBN7); assay: HDAC enzymes inhibition assay (Reaction Biology), HDAC6; type: biochemical; conditions: 10-dose, 3-fold dilution from 10 μM, single experiment
T1 construct: Reaction Biology Corporation (ran the assay as a service)
T1 sequence (Q9UBN7 1-1215): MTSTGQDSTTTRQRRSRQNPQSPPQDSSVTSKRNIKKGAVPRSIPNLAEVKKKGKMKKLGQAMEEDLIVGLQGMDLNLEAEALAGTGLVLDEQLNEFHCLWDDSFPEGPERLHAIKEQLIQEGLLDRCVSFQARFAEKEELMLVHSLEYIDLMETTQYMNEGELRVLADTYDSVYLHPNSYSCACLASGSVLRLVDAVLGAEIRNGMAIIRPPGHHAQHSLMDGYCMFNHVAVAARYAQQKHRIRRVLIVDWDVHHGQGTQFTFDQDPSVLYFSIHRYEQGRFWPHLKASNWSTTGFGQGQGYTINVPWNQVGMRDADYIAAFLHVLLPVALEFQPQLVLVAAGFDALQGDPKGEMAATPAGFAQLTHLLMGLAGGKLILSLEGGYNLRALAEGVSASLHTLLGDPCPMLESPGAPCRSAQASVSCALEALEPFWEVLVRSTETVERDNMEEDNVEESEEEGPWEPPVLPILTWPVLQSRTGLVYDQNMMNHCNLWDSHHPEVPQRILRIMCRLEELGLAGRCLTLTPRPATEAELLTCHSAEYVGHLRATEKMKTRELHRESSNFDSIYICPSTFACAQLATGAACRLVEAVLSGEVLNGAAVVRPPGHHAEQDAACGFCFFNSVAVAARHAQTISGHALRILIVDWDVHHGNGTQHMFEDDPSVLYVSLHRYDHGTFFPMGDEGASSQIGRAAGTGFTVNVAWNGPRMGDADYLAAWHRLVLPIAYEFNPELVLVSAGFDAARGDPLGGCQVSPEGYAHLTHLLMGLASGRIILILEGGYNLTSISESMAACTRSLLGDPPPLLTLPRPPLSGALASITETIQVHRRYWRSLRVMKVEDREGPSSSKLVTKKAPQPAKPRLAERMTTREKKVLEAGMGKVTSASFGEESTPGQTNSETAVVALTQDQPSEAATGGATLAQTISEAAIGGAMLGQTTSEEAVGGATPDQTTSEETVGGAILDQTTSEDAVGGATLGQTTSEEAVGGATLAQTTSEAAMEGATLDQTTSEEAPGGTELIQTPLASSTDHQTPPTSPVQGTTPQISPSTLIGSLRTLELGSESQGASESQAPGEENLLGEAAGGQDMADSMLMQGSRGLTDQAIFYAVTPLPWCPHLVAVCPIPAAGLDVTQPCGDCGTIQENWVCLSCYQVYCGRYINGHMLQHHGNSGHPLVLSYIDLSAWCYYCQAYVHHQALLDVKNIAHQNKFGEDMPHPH

[1] = system: human lung normal fibroblasts (IMR-90); assay: MTT cytotoxicity to normal cells, IMR-90; type: cell-based; conditions: 48 hours, read-out: IC50, proliferation of IMR-90
Procedure: FIGS. 3A and 3B show the effects of Compound 75 on cytotoxicity to normal cell lines. Cells were treated with DMSO or different concentrations of Compound 75 for 48 hours and cell viability was assessed by MTT assay. […] Data are expressed as mean t S.D. N values greater than 3. * P<0.05; ** P<0.01; *** P<0.001, compared with the control group.
The effects on cell viability of the HSP90/HDAC6 dual inhibitors as described in Synthesis Examples (such as Compounds 63, 64, and 66 to 76) were evaluated. Cells were seeded in 96-well plates (5000 cells/well). The next day, the serially diluted drugs were added into the wells and incubated at 37° C. for 48 h. Cell viability was measured by the MTT assay and is expressed as percentages of surviving drug-treated cells relative to untreated control cells. The IC50 was calculated by non-linear regression analysis.
The cytotoxicity to normal cells of Compound 75 was evaluated.

[2] = system: PD-L1 and IDO expression in HCT116 and CT26 cell lines; assay: Western blot of IFN-γ-induced PD-L1 and IDO, STAT1 pathway, in HCT116 and CT26; type: cell-based, human; mouse; conditions: HCT116 and CT26, 48 hours, via p-STAT1 and STAT1
Procedure: The cells were tested in 6-well plates with 32×10^4 cells/well and co-treated with Compound 75 for 48 hours and analyzed by flow cytometry. Bar, SD.
The effects of the HSP90/HDAC6 dual inhibitors as described in Synthesis Examples (such as Compounds 63, 64, and 66 to 76) on several factors were evaluated. Cells were lysed in RIPA buffer (Thermo Fisher Scientific, Wal-tham, MA, USA) and protease inhibitor (Roche, Basel, CH). Sample were further separated in 8% or 15% SDS-PAGE and transferred to nitrocellulose membrane and blocked with 5% skim milk (w/v in PBS). Nitrocellulose membranes were then incubated with primary antibodies against the following antigens: HSP90, Src, AKT, Rb, phosphorylated Rb (p-Rb), FAK, HSP70, α-tubulin acetylation, acetyl histone H3, phosphorylated STAT1 (p-STAT1), STAT1 (Cell signaling, Danvers, MA, USA), α-tubulin, Histone H3 (Genetex, Irvine, USA), IDO (Santa Cruz Biotechnology Dallas, TX, USA) and PD-L1 (Novus, Littleton, CO, USA) at 4° C. for overnight. The target proteins were visualized by using HRP-conjugated secondary antibodies (Jackson ImmunoResearch Laboratories, West Grove, PA, USA) and enhanced chemiluminescence kit (Thermo Fisher Scientific, Waltham, MA, U.S.A.).
Using western blot, whether Compound 75 reduced […]-induced PD-L1 and IDO performance by inhibiting STAT1 pathway was evaluated.

COc1ccc(N(Cc2ccc(C(=O)NO)cc2)C(=O)c2cc(C(C)C)c(O)cc2O)cc1 [Compound 75, 2,4-Dihydroxy-N-(4-hydroxycarbamoyl-benzyl)-5-isopropyl-N-(4-methoxy-phenyl)-benzamide]
IC50 (HDAC6): 4.56 nM | IC50 [1]: > 20000 nM | IFN-γ-induced PD-L1 and IDO expression [2]: downregulated PD-L1 and IDO expression
